The results in this text go back to ChEMBL document CHEMBL1157454, “Citral derived amides as potent bacterial NorA efflux pump inhibitors” (2008).

Values after ≈ are worked out from the molar mass of the structure shown. Active and inactive are the calls of the source. The rule behind the calls is not given here.

Test [1] has as its target T1, Quinolone resistance protein NorA (Staphylococcus aureus) (UniProt P0A0J7).
T1 sequence (whole entry): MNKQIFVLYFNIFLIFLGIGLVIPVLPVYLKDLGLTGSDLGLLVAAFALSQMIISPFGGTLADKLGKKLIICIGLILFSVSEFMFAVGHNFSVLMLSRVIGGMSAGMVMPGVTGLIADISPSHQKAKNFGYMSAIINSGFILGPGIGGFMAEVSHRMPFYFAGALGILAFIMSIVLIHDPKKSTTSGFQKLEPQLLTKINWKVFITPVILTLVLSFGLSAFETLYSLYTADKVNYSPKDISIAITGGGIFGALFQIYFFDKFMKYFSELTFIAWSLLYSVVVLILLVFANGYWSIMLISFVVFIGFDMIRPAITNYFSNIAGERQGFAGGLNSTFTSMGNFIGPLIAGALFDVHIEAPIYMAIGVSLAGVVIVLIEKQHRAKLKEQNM
The test is described as follows: Inhibition of NorA efflux pump in Staphylococcus aureus 1199B assessed as fold reduction of ciprofloxacin MIC at 12.5 ug/ml.

The target in test [2] is T1, Quinolone resistance protein NorA (Staphylococcus aureus). The test can be described thus: Inhibition of NorA efflux pump in Staphylococcus aureus 1199 assessed as fold reduction of ciprofloxacin MIC at 25 ug/ml.
For test [3], the system named is Staphylococcus aureus. The test can be described thus: Antimicrobial activity against Staphylococcus aureus 1199 at 100 ug/ml after 18 hrs by twofold serial dilution method. Format: functional, organism-based.
Test [4] has as its system Staphylococcus aureus. The test can be described thus: Antimicrobial activity against NorA overexpressing Staphylococcus aureus 1199B at 100 ug/ml after 18 hrs by twofold serial dilution method. Format: functional, organism-based.
The target of test [5] is T1, Quinolone resistance protein NorA (Staphylococcus aureus). The test is described as follows: Inhibition of NorA efflux pump in Staphylococcus aureus 1199B assessed as fold reduction of ciprofloxacin MIC at 25 ug/ml.
Test [6] shares this target. The test can be described thus: Inhibition of NorA efflux pump in Staphylococcus aureus 1199B assessed as fold reduction of ciprofloxacin MIC at 6.25 ug/ml.
The target is the same in test [7]. The test can be described thus: Inhibition of NorA efflux pump in Staphylococcus aureus 1199 assessed as fold reduction of ciprofloxacin MIC at 6.25 ug/ml.
The target is the same in test [8]. The test is described as follows: Inhibition of NorA efflux pump in Staphylococcus aureus 1199 assessed as fold reduction of ciprofloxacin MIC at 12.5 ug/ml.
Test [9] has the same target.
Test [10] shares this target. The note with it: 1199B.

In the case of `CC(C)=CCC/C(C)=C/C=C/C(=O)NCc1ccccc1`, the fold reduction in test [1] is 2; in [2], 2; in [5], 4. For the same compound, the result in test [3] and in test [4] was inactive.
For `C/C(C=O)=C\CC/C(C)=C/C=C/C(=O)N1CCCC1`, the result in test [3] and in [4] was inactive.
With `C/C(C=O)=C\CC/C(C)=C/C=C/C(=O)N1CCCCC1`, the values for the fold reduction in test [6], in [7] and in [5] were 2, 2 and 4, respectively. The result in [3] and in [4] was inactive.
With `CC(C)=CCC/C(C)=C/C=C/C(=O)N1CCOCC1`, the result in test [3] and in [4] was inactive.
Turning to `C/C(C=O)=C\CC/C(C)=C/C=C/C(=O)N1CCOCC1`, the outcome in test [3] and in test [4] was inactive.
In the case of `CC(C)=CCC/C(C)=C/C=C/C(=O)Nc1ccccc1`, the outcome in test [3] and in [4] was inactive.
In the case of `COC(=O)[C@H]1[C@H]2C[C@@H]3c4[nH]c5cc(OC)ccc5c4CCN3C[C@H]2C[C@@H](OC(=O)c2cc(OC)c(OC)c(OC)c2)[C@@H]1OC`, the fold reduction in test [2] came to 2; in test [5], 4.
On to `COc1ccccc1NC(=O)/C=C/CC(C)CCC=C(C)C` (stereo not given), for which the fold reduction in [1] came to 2. Moreover, the outcome in test [3] and in [4] was inactive.
With `C/C(C=O)=C\CC/C(C)=C/C=C/C(=O)NCc1ccccc1`, the results for the fold reduction in test [1], in test [2] and in test [5] were 2, 2 and 4, respectively. For the same compound, the result in test [3] and in test [4] was inactive.
On to `CC(C)=CCC/C(C)=C/C=C/C(=O)N1CCCC1`, for which the result in test [3] and in test [4] was inactive.
Turning to `CC(C)=CCC/C(C)=C/C=C/C(=O)N1CCCCC1`, the fold reduction in test [1] and in test [8] was 2 throughout. Besides, the outcome in [3] and in test [4] was inactive.
On to `O=C(/C=C/C=C/c1ccc2c(c1)OCO2)N1CCCCC1`, for which the MIC in [9] and in [10] was 2 µg/mL (≈ 7.01 µM) each time.
In the case of `CC(C)=CCCC(C)C/C=C/C(=O)N1CCCCC1` (stereo not given), the fold reduction in [1] stood at 2. Moreover, the result in test [3] and in test [4] was inactive.
Take `C/C(C=O)=C\CCC(C)CCCC(=O)N1CCCCC1` (stereo not given): the result in [3] and in test [4] was inactive.
As to `CCCCCCCCNC(=O)/C=C/C=C(\C)CCC=C(C)C`, the fold reduction in test [1] was 2; in [8] it was 2; in test [2], 4; in test [5], 4. Further, the outcome in [3] and in test [4] was inactive.
Take `COc1ccccc1NC(=O)CCCC(C)CCC=C(C)C` (stereo not given): the outcome in test [3] and in [4] was inactive.
For the compound `CC(C)=CCCC(C)C/C=C/C(=O)NCc1ccccc1` (stereo not given), the MIC in test [9] and in test [10] was 4 µg/mL (≈ 14 µM) throughout. The result in [3] and in [4] was inactive.
As to `CC(C)=CCC/C(C)=C/C=C/C(=O)O`, the result in test [3] and in test [4] was inactive.
With `COc1ccccc1NC(=O)/C=C/CC(C)CC/C=C(\C)C=O` (stereo not given), the result in test [3] and in [4] was inactive. The fold reduction in test [5] was 4.
On to `CC(C)=CCC/C(C)=C/C=C/C(=O)NC(C)C`, for which the result in [3] and in [4] was inactive.
For the compound `CCCCCCCCNC(=O)/C=C/C=C(\C)CC/C=C(\C)C=O`, the fold reduction was determined as 2 in test [1], 2 in test [8], 2 in test [2] and 4 in test [5]. The outcome in [3] and in test [4] was inactive.
On to `C/C(C=O)=C\CCC(C)CCCC(=O)NCc1ccccc1` (stereo not given), for which the result in [3] and in [4] was inactive.
Regarding `COc1ccc(NC(=O)/C=C/C=C(\C)CCC=C(C)C)cc1`, the outcome in test [3] and in test [4] was inactive.
As for `CCCCCCCCNC(=O)CCCC(C)CCC=C(C)C` (stereo not given), the outcome in [3] and in test [4] was inactive.
For the compound `CC(C)=CCC/C(C)=C/C=C/C(=O)NCC(C)C`, the outcome in [3] and in test [4] was inactive.
Consider `CC(C)=CCC/C(C)=C/C=C/C(=O)Nc1ccccc1C`, for which the result in [3] and in test [4] was inactive.
Regarding `CC(C)c1cc2c(c(O)c1O)[C@@]1(C(=O)O)CCCC(C)(C)[C@@H]1CC2`, the fold reduction in [2] and in test [5] was 2 each time.
Consider `CC(C)=CCC/C(C)=C/C=C/C(=O)N(C(C)C)C(C)C`, for which the fold reduction amounted to 2 in [2] and 4 in test [5]. Further, the outcome in [3] and in test [4] was inactive.
In the case of `COc1ccccc1NC(=O)/C=C/C=C(\C)CCC=C(C)C`, the fold reduction in test [2] is 2; in test [5], 4. The result in test [3] and in test [4] was inactive.
Turning to `CCCCCCCCNC(=O)/C=C/CC(C)CCC=C(C)C` (stereo not given), the result in [3] and in test [4] was inactive.
For the compound `CCCCCCCCNC(=O)/C=C/CC(C)CC/C=C(\C)C=O` (stereo not given), the outcome in test [3] and in test [4] was inactive. In test [5], the fold reduction was determined as 4.
Consider `C/C(C=O)=C\CC/C(C)=C/C=C/C(=O)N(C(C)C)C(C)C`, for which the fold reduction in [1] was 2; in test [5] it was 4. Besides, the result in test [3] and in [4] was inactive.
